Among the data in patent publication US5238832A, “Aryl aliphatic acids” (Board of Governors of Wayne State University, priority 1992, dated 1993) are IC50 values, retold here.

Broadly, the IC50 is the concentration at which inhibition is half-maximal.

The target of this test is T1, 12-lipoxygenase (Sus scrofa, UniProt P16469).
T1 construct: porcine leukocyte cytosol containing 12-lipoxygenase; from tissue; host or cells: porcine leukocyte cytosol
T1 sequence (P16469 1-663): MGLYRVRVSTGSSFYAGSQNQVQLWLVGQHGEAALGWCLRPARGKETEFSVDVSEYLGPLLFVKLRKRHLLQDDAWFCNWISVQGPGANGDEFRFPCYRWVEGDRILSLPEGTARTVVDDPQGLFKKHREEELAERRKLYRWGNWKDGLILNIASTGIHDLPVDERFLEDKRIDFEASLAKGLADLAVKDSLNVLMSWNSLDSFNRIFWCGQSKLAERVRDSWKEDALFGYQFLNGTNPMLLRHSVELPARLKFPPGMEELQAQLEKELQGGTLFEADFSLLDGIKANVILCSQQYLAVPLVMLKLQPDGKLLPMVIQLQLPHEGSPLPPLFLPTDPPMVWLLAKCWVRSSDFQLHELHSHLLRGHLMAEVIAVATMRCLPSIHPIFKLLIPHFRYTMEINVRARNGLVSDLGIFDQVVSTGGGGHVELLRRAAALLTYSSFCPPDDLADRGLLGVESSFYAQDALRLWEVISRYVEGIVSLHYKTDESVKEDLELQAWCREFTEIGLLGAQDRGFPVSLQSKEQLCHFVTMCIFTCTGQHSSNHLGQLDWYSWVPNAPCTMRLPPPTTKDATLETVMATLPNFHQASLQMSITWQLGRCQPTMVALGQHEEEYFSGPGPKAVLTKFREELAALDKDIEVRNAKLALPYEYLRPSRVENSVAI
Put plainly: Inhibition of 12-lipoxygenase activity by aryl aliphatic acids (porcine leukocyte cytosol, conversion of [1-14C] arachidonic acid to 12-HETE). Particulars: porcine leukocyte cytosol 0.075 mg/ml protein; 0.1 M HEPES, pH 8.0; 5 min preincubation, 15 min at 37° C.; arachidonic acid given as 5 mM. Type of test: biochemical. The method, then:
The standard assay procedure is as follows: […] [1^-14 C] Arachidonic acid was added (final concentration of […]) and the reactions were incubated for 15 minutes at 37° C. and terminated by the addition of HCl. […] Samples were extracted with water-saturated ethyl acetate and the extracts were spotted onto TLC plates. The plates were developed with dichloromethane/ethyl acetate/acetic acid in a ratio of 70:30:1. […] The percentage conversion to 12-HETE was calculated from the percentage of the total ^14 C on the TLC plate that coelutes with a standard of 12-HETE.
For `CCCCCCCCCCC#CCOCc1ccc(CCC(=O)O)cc1` [Compound 24, 3-[4-(2-Tridecynyloxymethyl)phenyl]propanoic Acid], the IC50 came out at 0.035 µM. The same measure for `CCCCCCC#CCOCc1ccc(CCC(=O)O)cc1` [Compound 25, 3-[4-(2-Nonynyloxymethyl)phenyl]propanoic Acid]: 2 µM; for `CCCCCCCCC#CCOCc1ccc(CCC(=O)O)cc1` [Compound 26, 3-[4-(2-Undecynyloxymethyl)phenyl]propanoic Acid]: 0.1 µM. Turning to `CCCCCCCCCCCCC#CCOCc1ccc(CCC(=O)O)cc1` [Compound 27, 3-[4-(2-Pentadecynyloxymethyl)phenyl]propanoic Acid], the IC50 came to 0.32 µM. Then `CCCCCCCCCCc1ccc(COCc2ccc(CCC(=O)O)cc2)cc1` [Compound 30, 3-[4-[4-(Decylphenylmethyl)oxymethyl]phenyl]propanoic Acid], with 5 µM; and `CCCCCCCCCC/C=C\COCc1ccc(CCC(=O)O)cc1` [Compound 31, cis-3-[4-(2-Tridecenyloxymethyl)-phenyl]propanoic Acid], with 1 µM; and `CCCCCCCCCC/C=C/COCc1ccc(CCC(=O)O)cc1` [Compound 32, trans-3-[4-(2-Tridecenyloxymethyl)phenyl]propanoic Acid], with 0.4 µM.

On to `CCCCCCCCCCC=C=CCOCc1ccc(CCC(=O)O)cc1` [Compound 34, (S)-(+)-3-[4-(2,3-Tetradecadienyloxymethyl)phenyl]propanoic Acid], for which the IC50 was 0.28 µM. Then `CCCCCCCCCCC=C=CCOCc1ccc(CCC(=O)O)cc1` [Compound 35, (R)-3-[4-(2,3-Tetradecadienyloxymethyl)], with 0.45 µM.
